Bridge positions count the residues as written; N and C are the ends. Square brackets hold non-standard residues; d marks the D form. Peptide text beside a SMILES is read from it. NMePhe(4-Cl) = CN[C@@H](Cc1ccc(Cl)cc1)C(=O)O; Gly(Nα-CH2CH2CONH2) = NC(=O)CCNCC(=O)O; 1Nal = N[C@@H](Cc1cccc2ccccc12)C(=O)O; d1Nal = N[C@H](Cc1cccc2ccccc12)C(=O)O; dHis(π-Me) = Cn1cncc1C[C@@H](N)C(=O)O; His(π-Me) = Cn1cncc1C[C@H](N)C(=O)O; NMeY = CN[C@@H](Cc1ccc(O)cc1)C(=O)O; dNMeY = CN[C@H](Cc1ccc(O)cc1)C(=O)O; NMeR = CN[C@@H](CCCNC(=N)N)C(=O)O; Gly(N(CH2)3NH2) = NCCCNCC(=O)O; dAbu = CC[C@@H](N)C(=O)O; Abu = CC[C@H](N)C(=O)O
Key:
Type in all cases: cell-based
Conditions in all cases: LB broth, 5×10^5 CFU/ml, 37° C., 18 hours, scored by eye
E. coli 25922 = test: Minimum Inhibitory Concentration (MIC) determination, E. coli 25922; parameters: unit not given here
In short: (§1)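 Peptides, diluted two-fold in LB broth from 10 mM DMSO stocks, were inoculated with 5×10^5 CFU/ml of each strain. Incubation was 18 h at 37 °C without shaking. MIC is the lowest concentration preventing visible growth, scored by eye.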

E. cloacae ATCC222 = test: Minimum Inhibitory Concentration (MIC) determination, E. cloacae ATCC222; parameters: unit not given here
Protocol: (§2) MICs were determined by performing two-fold serial dilutions of peptides in LB broth to a final volume of 0.1 ml in round-bottom 96-well assay plates (Corning Life Sciences No 3788). Peptides were initially resuspended in 100% DMSO to 10 mM and subsequently diluted in LB medium to the appropriate concentration. Each well was inoculated with 5×10^5 CFU/ml of the screening stain and incubated at 37° C. without agitation for 18 hours. Plates were scored by eye, and the lowest compound concentration preventing visible growth was determined to be the MIC.

K. pneumoniae ATCC43816 = test: Minimum Inhibitory Concentration (MIC) determination, K. pneumoniae ATCC43816; parameters: unit not given here
Protocol: as §2

E. coli BW25113 = test: Minimum Inhibitory Concentration (MIC) determination, E. coli BW25113; parameters: unit not given here
In short: as §1

E. coli 25922 IMP = test: Minimum Inhibitory Concentration (MIC) determination, E. coli 25922 IMP
In short: as §1

SMILES	MIC E. coli 25922 WUXI::MIC (E. coli 25922)	MIC E. cloacae ATCC222 WUXI::MIC (E. cloacae ATCC222)	MIC K. pneumoniae ATCC43816 Wuxi::MIC (K. pneumoniae ATCC43816)	MIC E. coli BW25113 WUXI::MIC (E. coli BW25113)	MIC E. coli 25922 IMP WUXI::MIC (E. coli 25922 IMP)
CC[C@@H]1NC(=O)[C@H](Cc2ccccc2)NC(=O)CSC[C@@H](C(=O)NCC(N)=O)NC(=O)[C@H](C)NC(=O)[C@H](CCCNC(=N)N)NC(=O)[C@H](Cc2c[nH]cn2)NC(=O)[C@H](Cc2ccc(O)cc2)N(C)C(=O)[C@H](CCCNC(=N)N)NC(=O)[C@H](CO)NC(=O)CNC(=O)[C@H](Cc2c[nH]cn2)NC(=O)[C@H](Cc2cccc3ccccc23)NC1=O [Compound 39, (3R,6S,9S,12S,15S,18S,21S,27S,30S, 33S,36S)-N-(2-amino-2-oxo-ethyl)-36-benzyl-33-ethyl-9,18-bis(3-guanidinopropyl)-21-(hydroxymethyl)-15-[(4-hydroxyphenyl)methyl]-12,27-bis(1H-imidazol-4-ylmethyl)-6,16-dimethyl-30-(1-naphthylmethyl)-5,8,11,14,17,20,23,26,29,32,35,38-dodecaoxo-1-thia-4,7,10,13,16,19,22,25,28,31,34,37-dodecazacyclononatriacontane-3-carboxamide] ({CH2CO}-F[Abu][1Nal]HGSR[NMeY]HRACG-NH2; thioether N-12)	100	100	100	100	6.3
CC[C@@H]1NC(=O)[C@H](Cc2ccccc2)NC(=O)CSC[C@@H](C(=O)NCC(N)=O)NC(=O)[C@H](Cc2cncn2C)NC(=O)[C@H](CCCNC(=N)N)NC(=O)[C@H](Cc2c[nH]cn2)NC(=O)[C@H](Cc2ccc(O)cc2)N(C)C(=O)[C@H](CCCNC(=N)N)NC(=O)[C@H](CO)NC(=O)CN(CCCN)C(=O)[C@H](Cc2c[nH]cn2)NC(=O)[C@H](Cc2cccc3ccccc23)NC1=O [Compound 29] ({CH2CO}-F[Abu][1Nal]H[Gly(N(CH2)3NH2)]SR[NMeY]HR[His(π-Me)]CG-NH2; thioether N-12)	1.6	0.1	3.1	6.3	0.001
CC[C@@H]1NC(=O)[C@H](Cc2ccccc2)NC(=O)CSC[C@@H](C(=O)NCC(N)=O)NC(=O)[C@H](Cc2cncn2C)NC(=O)[C@H](CCCNC(=N)N)NC(=O)[C@H](Cc2c[nH]cn2)NC(=O)[C@H](Cc2ccc(O)cc2)N(C)C(=O)[C@H](CCCNC(=N)N)NC(=O)[C@H](CO)NC(=O)[C@@H](C)NC(=O)[C@H](Cc2c[nH]cn2)NC(=O)[C@H](Cc2cccc3ccccc23)NC1=O [Compound 26] ({CH2CO}-F[Abu][1Nal]H[dA]SR[NMeY]HR[His(π-Me)]CG-NH2; thioether N-12)	3.1	0.78	25	6.3	0.0039
CC[C@@H]1NC(=O)[C@H](Cc2ccc(O)cc2)NC(=O)CSC[C@@H](C(=O)NCC(N)=O)NC(=O)[C@H](Cc2cncn2C)NC(=O)[C@H](CCCNC(=N)N)NC(=O)[C@H](Cc2c[nH]cn2)NC(=O)[C@H](Cc2ccc(O)cc2)N(C)C(=O)[C@H](CCCNC(=N)N)NC(=O)[C@H](CO)NC(=O)CNC(=O)[C@H](Cc2c[nH]cn2)NC(=O)[C@H](Cc2cccc3ccccc23)NC1=O [Compound 19, (3R,6S,9S,12S,15S,18S,21S,27S,30S, 33S,36S)-N-(2-amino-2-oxo-ethyl)-33-ethyl-9,18-bis(3-guanidinopropyl)-21-(hydroxymethyl)-15,36-bis[(4-hydroxyphenyl)methyl]-12,27-bis(1H-imidazol-4-ylmethyl)-16-methyl-6-[(3-methylimidazol-4-yl)methyl]-30-(1-naphthylmethyl)-5,8,11,14,17,20,23,26,29,32,35,38-dodecaoxo-1-thia-4,7,10,13,16,19,22,25,28,31,34,37-dodecazacyclononatriacontane-3-carboxamide] ({CH2CO}-Y[Abu][1Nal]HGSR[NMeY]HR[His(π-Me)]CG-NH2; thioether N-12)	3.1	0.39	6.3	6.3	0.0039
CC[C@@H](C)[C@H]1NC(=O)[C@@H](Cc2ccccc2)NC(=O)CSC[C@H](C(=O)NCC(N)=O)NC(=O)[C@@H](Cc2cncn2C)NC(=O)[C@@H](CCCNC(=N)N)NC(=O)[C@@H](Cc2cnc[nH]2)NC(=O)[C@@H](Cc2ccccc2)N(C)C(=O)[C@@H](CCCNC(=N)N)NC(=O)[C@@H](CO)NC(=O)CNC(=O)[C@@H](Cc2cnc[nH]2)NC(=O)[C@@H](Cc2cccc3ccccc23)NC1=O (racemic) [Compound 17]	13	3.1	37.5	50	0.002
CC[C@@H]1NC(=O)[C@H](Cc2ccccc2)NC(=O)CSC[C@@H](C(=O)NCC(N)=O)NC(=O)[C@H](Cc2cncn2C)NC(=O)[C@H](CCCNC(=N)N)NC(=O)[C@H](C)NC(=O)[C@H](Cc2ccc(O)cc2)N(C)C(=O)[C@H](CCCNC(=N)N)NC(=O)[C@H](CO)NC(=O)CNC(=O)[C@H](Cc2c[nH]cn2)NC(=O)[C@H](Cc2cccc3ccccc23)NC1=O [Compound 37] ({CH2CO}-F[Abu][1Nal]HGSR[NMeY]AR[His(π-Me)]CG-NH2; thioether N-12)	100	100	100	100	25
CC[C@H]1NC(=O)[C@@H](Cc2ccccc2)NC(=O)CSC[C@H](C(=O)NCC(N)=O)NC(=O)[C@@H](Cc2cncn2C)NC(=O)[C@@H](CCCNC(=N)N)NC(=O)[C@@H](Cc2c[nH]cn2)NC(=O)[C@@H](Cc2ccc(O)cc2)N(C)C(=O)[C@@H](CCCNC(=N)N)NC(=O)[C@@H](CO)NC(=O)[C@@H](CCCNC(=N)N)NC(=O)[C@@H](Cc2c[nH]cn2)NC(=O)[C@@H](Cc2cccc3ccccc23)NC1=O [Compound 28] ({CH2CO}-[dF][dAbu][d1Nal][dH][dR][dS][dR][dNMeY][dH][dR][dHis(π-Me)][dC]G-NH2; thioether N-12)	3.1	0.2	3.1	6.3	0.002
CC[C@@H]1NC(=O)[C@H](Cc2ccccc2)NC(=O)CSC[C@@H](C(=O)NCC(N)=O)NC(=O)[C@H](Cc2cncn2C)NC(=O)[C@H](CCCNC(=N)N)N(C)C(=O)[C@H](Cc2c[nH]cn2)NC(=O)[C@H](Cc2ccc(O)cc2)N(C)C(=O)[C@H](CCCNC(=N)N)NC(=O)[C@H](CO)NC(=O)CNC(=O)[C@H](Cc2c[nH]cn2)NC(=O)[C@H](Cc2cccc3ccccc23)NC1=O [Compound 34] ({CH2CO}-F[Abu][1Nal]HGSR[NMeY]H[NMeR][His(π-Me)]CG-NH2; thioether N-12)	41.667	6.3	25	100	0.063
CC[C@@H]1NC(=O)[C@H](Cc2ccccc2)NC(=O)CSC[C@@H](C(=O)NCC(N)=O)NC(=O)[C@H](Cc2cncn2C)NC(=O)[C@H](CCCNC(=N)N)NC(=O)[C@H](Cc2c[nH]cn2)NC(=O)[C@H](Cc2ccc(Cl)cc2)N(C)C(=O)[C@H](CCCNC(=N)N)NC(=O)[C@H](CO)NC(=O)CNC(=O)[C@H](Cc2c[nH]cn2)NC(=O)[C@H](Cc2cccc3ccccc23)NC1=O [Compound 33] ({CH2CO}-F[Abu][1Nal]HGSR[NMePhe(4-Cl)]HR[His(π-Me)]CG-NH2; thioether N-12)	13	1.6	25	25	0.0005
CC[C@@H]1NC(=O)[C@H](Cc2ccccc2)NC(=O)CSC[C@@H](C(=O)NCC(N)=O)NC(=O)[C@H](Cc2cncn2C)NC(=O)[C@H](CCCNC(=N)N)NC(=O)[C@H](Cc2c[nH]cn2)NC(=O)[C@H](Cc2ccc(O)cc2)N(C)C(=O)[C@H](CCCNC(=N)N)NC(=O)[C@H](CO)NC(=O)CN(CCC(N)=O)C(=O)[C@H](Cc2c[nH]cn2)NC(=O)[C@H](Cc2cccc3ccccc23)NC1=O [Compound 30] ({CH2CO}-F[Abu][1Nal]H[Gly(Nα-CH2CH2CONH2)]SR[NMeY]HR[His(π-Me)]CG-NH2; thioether N-12)	25	1.6	100	50	0.016
CC[C@H](C)[C@@H]1NC(=O)[C@H]([C@@H](C)O)NC(=O)CNC(=O)[C@H](Cc2ccccc2)NC(=O)CSC[C@@H](C(=O)NCC(N)=O)NC(=O)[C@H](Cc2ccccc2)NC(=O)[C@H](Cc2c[nH]c3ccccc23)NC(=O)[C@H](Cc2ccc(O)cc2)NC(=O)[C@H](CCCNC(=N)N)NC(=O)[C@H](Cc2ccccc2)NC(=O)[C@H](CCCNC(=N)N)NC(=O)[C@H](CCCNC(=N)N)NC(=O)[C@H](CCCCN)NC(=O)[C@H](Cc2cnc[nH]2)NC1=O (racemic) [Compound 50]	2	>64	32	2	1

— US20240279283A1, “CYCLIC PEPTIDE ANTIBIOTICS” (priority 2021, published 2024)
